# Measurements from patent US10576082B2, “ErbB2 regulates autophagic flux to modulate the proteostasis of APP-CTFs in alzheimer's disease” (Academia Sinica, priority 2016, dated 2020).
# How the values were obtained:
# [1] = test system: γ-secretase-mediated proteolysis of C99 (CG cells); assay: Cell-based C99-specific γ-secretase assay (CG cells, Gal4 luciferase reporter); settings: 1 μM inhibitor, 1 μg/ml tetracycline, 37° C., 24 h
# Method: (A) Adherent CG and NG cells (20,000 cells/well) were treated with 1 μM of the indicated ErbB1/2-selective tyrosine kinase inhibitors in the presence of 1 μg/ml tetracycline at 37° C. for 24 h. The luminescence signals emitted by cells treated with vehicle alone (Ctrl, 0.1% DMSO) were referred to as 100% relative luminescence signals. The luminescence signals generated by γ-secretase-mediated proteolysis of C99 (CG) or NΔE (NG) were determined using the Steady-Glo luciferase assay reagent. (B) HEK293 overexpressing C99-YFP cells were treated with 1 μM of the indicated ErbB1/2 tyrosine kinase inhibitors at 37° C. for 24 h. Clarified lysates were analyzed by Western blotting and quantified by Image J. (C) HEK293 overexpressing ErbB1 ErbB2, CFP-tagged C99, and YFP-tagged NΔE cells were infected with gene-targeting shRNA-encoding lentivirus (shErbB1 or shErbB2) at 37° C. for 48 h. Clarified lysates containing equivalent amounts of proteins were examined by Western blotting and quantified by Image J. (D) CG and NG cells were infected with gene-targeting shRNA-encoding lentivirus at 37° C. for 48 h. Following induction with 1 μg/ml tetracycline for 24 h. […] Data are shown as the mean±SD from three independent experiments, and were analyzed by Student's t-tests. * p<0.05. […]
# [2] = test system: APPswe/PS1ΔE9 double transgenic mice; assay: Morris water maze in APPswe/PS1ΔE9 transgenic mice; format: in vivo, mouse; settings: 5 mg/kg daily oral
# [3] = test system: APPswe/PS1ΔE9 double transgenic mice; assay: Western blotting of brain homogenates of treated APPswe/PS1ΔE9 mice; format: in vivo, mouse; settings: 5 mg/kg daily oral, 20 days
# [4] = test system: APPswe/PS1ΔE9 double transgenic mice; assay: Co-immunoprecipitation (anti-BECN1) of brain lysates of treated APPswe/PS1ΔE9 mice; format: in vivo, mouse
compound,measurement,setting,value
"CC#CC(=O)Nc1ccc2ncnc(Nc3cccc(Br)c3)c2c1 [CL-387,785, N-[4-[(3-bromophenyl)amino]-6-quinazolinyl]-2-butynamide]",processing of C99 (luminescence signal in CG cells),[1],effectively blocked the processing of C99
same,probe test with invisible platform (cognitive function versus vehicle-treated AD mice),[2]; after 3 weeks of daily dosing (day 21),dramatic cognitive improvement
same,"spatial learning (escape latency, Morris water maze)",[2]; after 16 days of daily dosing,significantly enhanced spatial learning
same,brain level of APP-CTF,[3],significant reduction
same,brain level of ErbB2,[3],significant reduction
same,brain level of p62,[3],significant reduction
same,brain level of total APP,[3],steady level
same,brain ratio of LC3-II to LC3-I,[3],increase
same,phosphorylation of EGFR(ErbB1) in brain,"[4]; 5 mg/kg daily oral, 20 days",inhibited
same,interaction between ErbB2 with Beclin-1 in brain,"[4]; 5 mg/kg daily oral, 20 days, co-immunoprecipitation",drastically suppressed
same,formation of the Beclin1-Vps34-Vps15 complex,[4]; summary statement for the compound (FIG. 7),rescues the formation
